Experimental data taken from patent US10005773B2, “1-(4-pyrimidinyl)-1H-pyrrolo[3,2-c]pyridine derivatives as NIK inhibitors” (Janssen Pharmaceutica NV, priority 2013, dated 2018).

Columns and labels:
JJN-3 cells = assay: Biological Assay C: antiproliferative activity on JJN-3 cells (CellTiter-Glo); assay type: cell-based; conditions: Homo sapiens, 72 hr treatment
Experimental: (§1) Determination of Antiproliferative Activity on LP-1, L-363 and JJN-3 Cells
(§2) All compounds tested were dissolved in DMSO and further dilutions were made in culture medium. Final DMSO concentration was 0.3% (v/v) in cell proliferation assays. Viability was assessed using CellTiter-Glo cell viability assay kit (Promega). The human LP-1, L-363 and JJN-3 cells (DSMZ) were cultured in RPMI 1640 medium supplemented with 2 mM L-glutamine, and 10% fetal calf serum (PAA). Cells were routinely kept as suspension cells at 37° C. in a humidified 5% CO2 atmosphere. Cells were passaged at a seeding density of 0.2×10^6/ml twice a week. Cells were seeded in black tissue culture treated 96-well plates (Perkin Elmer). Densities used for plating ranged from 2,000 to 6,000 cells per well in a total volume of 75 μl medium. After twenty four hours, drugs and/or solvents were added (25 μl) to a final volume of 100 μl. Following 72 hr of treatment plates were removed from the incubator and allowed to equilibrate to room temperature for approx 10 min. 100 μl CellTiter-Glo reagent was added to each well that was then covered (Perkin Elmer Topseal) and shaken on plate shaker for 10 min. Luminescence was measured on a HTS Topcount (Perkin Elmer). Within an experiment, the results for each treatment were the mean of 2 replicate wells. For initial screening purposes, compounds were tested using a 9 point dilution curve (serial 1:3 dilutions). For each experiment, controls (containing no drug) and a blank incubation (containing cells read at the time of compound addition) were run in parallel. The blank value was subtracted from all control and sample values. For each sample, the mean value for cell growth (in relative light units) was expressed as a percentage of the mean value for cell growth of the control.

LP-1 cells = assay: Biological Assay C: antiproliferative activity on LP-1 cells (CellTiter-Glo); assay type: cell-based; conditions: Homo sapiens, 72 hr treatment
Experimental: as §1, §2

[1] = system: P-IKKα levels in L363 cells; assay: Biological Assay B: effect of compounds on P-IKKα levels in L363 cells; assay type: cell-based; conditions: Homo sapiens, L-363, BAFF stimulated, 2 hr treatment, averaged over all batches, read-out: IKKα Cellular IC50
Experimental: Effect of Compounds on P-IKKα Levels in L363 Cells
All compounds tested were dissolved in DMSO and further dilutions were made in culture medium. Final DMSO concentration was 1% (v/v) in cell assays. The human L363 cells (ATCC) were cultured in RPMI 1640 medium supplemented with GlutaMax and 10% fetal calf serum (PAA). Cells were routinely maintained at densities of 0.2×10^6 cells per ml-1×10^6 cells per ml at 37° C. in a humidified 5% CO2 atmosphere. Cells were passaged twice a week splitting back to obtain the low density. Cells were seeded in 96 well plates (Nunc 167008) at 2×10^6 per ml media in a volume of 75 μl per well plus 25 μl 1 μg/ml recombinant human B-cell activating factor (BAFF/BLyS/TNFSF13B). Seeded cells were incubated at 37° C. in a humidified 5% CO2 atmosphere for 24 hr. Drugs and/or solvents were added (20 μl) to a final volume of 120 μl. Following 2 hr treatment plates were removed from the incubator and cell lysis was achieved by the addition of 30 μl 5× lysis buffer followed by shaking on a plate shaker at 4° C. for 10 min. At the end of this incubation lysed cells were centrifuged at 800×g for 20 min at 4° C. and the lysate was assessed for P-IKKα levels by sandwich immuno-assay carried out in anti-rabbit antibody coated Mesoscale plates. Within an experiment, the results for each treatment were the mean of 2 replicate wells. For initial screening purposes, compounds were tested using an 8 point dilution curve (serial 1:3 dilutions). For each experiment, controls (containing MG132 and BAFF but no test drug) and a blank incubation (containing MG132 and BAFF and 10 μM ADS125117, a test concentration known to give full inhibition) were run in parallel. The blank incubation value was subtracted from all control and sample values. To determine the IC50 a sigmoidal curve was fitted to the plot of % inhibition of control P-IKKα levels versus Log10 compound concentration.

L-363 cells = assay: Biological Assay C: antiproliferative activity on L-363 cells (CellTiter-Glo); assay type: cell-based; conditions: Homo sapiens, 72 hr treatment
Experimental: as §1, §2

[2] = target: T1, Recombinant Human NF-kappaB-Inducing Kinase (NIK/MAP3K14) (Homo sapiens, UniProt Q99558); assay: Biological Assay A2: inhibition of auto-phosphorylation of recombinant human NIK/MAP3K14 (AlphaScreen); assay type: biochemical; conditions: 25 microM ATP, 0.2 nM NIK/MAP3K14, 1 h at 25° C., averaged over all batches, read-out: Alpha-Screen IC50
T1 sequence (Q99558 whole entry): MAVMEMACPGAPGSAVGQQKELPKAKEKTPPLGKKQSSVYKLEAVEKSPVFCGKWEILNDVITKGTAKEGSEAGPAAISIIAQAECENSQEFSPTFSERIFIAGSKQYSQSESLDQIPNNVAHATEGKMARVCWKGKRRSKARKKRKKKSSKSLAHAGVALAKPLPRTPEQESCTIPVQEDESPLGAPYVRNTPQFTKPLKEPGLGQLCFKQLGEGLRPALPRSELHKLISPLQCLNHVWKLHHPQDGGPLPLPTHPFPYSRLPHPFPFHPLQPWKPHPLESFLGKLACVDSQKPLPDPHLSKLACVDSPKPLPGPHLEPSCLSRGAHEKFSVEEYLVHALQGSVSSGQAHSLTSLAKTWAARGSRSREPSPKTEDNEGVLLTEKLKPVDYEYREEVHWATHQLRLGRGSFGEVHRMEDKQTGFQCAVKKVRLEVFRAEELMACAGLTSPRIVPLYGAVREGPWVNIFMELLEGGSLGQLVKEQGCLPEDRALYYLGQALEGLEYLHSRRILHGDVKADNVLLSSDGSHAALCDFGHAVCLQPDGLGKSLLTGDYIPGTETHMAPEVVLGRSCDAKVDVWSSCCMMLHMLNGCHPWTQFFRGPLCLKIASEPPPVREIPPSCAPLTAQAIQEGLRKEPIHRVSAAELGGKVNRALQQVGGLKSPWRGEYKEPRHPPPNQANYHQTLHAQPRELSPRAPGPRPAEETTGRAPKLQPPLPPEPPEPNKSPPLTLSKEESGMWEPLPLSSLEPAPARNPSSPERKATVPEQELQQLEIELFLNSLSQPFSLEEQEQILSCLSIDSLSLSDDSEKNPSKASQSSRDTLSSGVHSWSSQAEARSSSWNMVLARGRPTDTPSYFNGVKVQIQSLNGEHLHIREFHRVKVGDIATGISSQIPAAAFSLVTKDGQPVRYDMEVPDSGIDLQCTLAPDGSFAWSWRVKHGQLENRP
Experimental: Inhibition of Auto-Phosphorylation of Recombinant Human NF-kappaB-Inducing Kinase (NIKIMAP3K14) Activity (AlphaScreen®)
NIK/MAP3K14 auto-phosphorylation activity was measured using the AlphaScreen® (ascreen) format (Perkin Elmer). All compounds tested were dissolved in dimethyl sulfoxide (DMSO) and further dilutions were made in assay buffer. Final DMSO concentration was 1% (v/v) in assays. Assay buffer was 50 mM Tris pH 7.5 containing 1 mM EGTA (ethylene glycol tetraacetic acid), 1 mM DTT (dithiothreitol), 0.1 mM Na3VO4, 5 mM MgCl2, 0.01% Tween® 20. Assays were carried out in 384 well Alphaplates (Perkin Elmer). Incubations consisted of compound, 25 microM Adenosine-5′-triphosphate (ATP), and 0.2 nM NIK/MAP3K14. Incubations were initiated by addition of GST-tagged NIK/MAP3K14 enzyme, carried out for 1 h at 25° C. and terminated by addition of stop buffer containing anti-phospho-IKK Ser176/180 antibody. Protein A Acceptor and Glutathione-Donor beads were added before reading using an EnVision® Multilabel Plate Reader (Perkin Elmer). Signal obtained in the wells containing blank samples was subtracted from all other wells and IC50's were determined by fitting a sigmoidal curve to % inhibition of control versus Log10 compound concentration.

[3] = target: T1, Recombinant Human NF-kappaB-Inducing Kinase (NIK/MAP3K14); assay: Biological Assay A: inhibition of recombinant human NIK/MAP3K14 activity (MSD, MBP substrate); conditions: 25 μM ATP, 10 nM NIK/MAP3K14, 1 h at 25° C.; averaged over all batches; read-out: Biochemical (MSD MBP) IC50
Experimental: Inhibition of Recombinant Human NF-kappaB-Inducing Kinase (NIKIMAP3K14) Activity
Assay buffer was 50 mM Tris pH 7.5 containing 1 mM ethylene glycol tetraacetic acid (EGTA), 1 mM dithiothreitol (DTT), 0.1 mM Na3VO4, 5 mM MgCl2, 0.01% Tween® 20. Assays were carried out in 384 well Mesoscale high binding plates which had been coated with myelin basic protein (MBP) and blocked with bovine serum albumin to prevent non-specific protein binding. All compounds tested were dissolved in dimethyl sulfoxide (DMSO) and further dilutions were made in assay buffer. Final DMSO concentration was 1% (v/v) in assays. Incubations consisted of compound (1% DMSO in control and blank wells), 25 μM Adenosine-5′-triphosphate (ATP), and 10 nM NIK/MAP3K14 substituting enzyme with buffer in the blank wells. Incubations were carried out for 1 h at 25° C. and were followed by washing and sequential incubation with rabbit anti-phospho-MBP and anti-rabbit Ig Sulfotag antibody before reading bound Sulfotag on a Mesoscale Discovery. Signal obtained in the wells containing blank samples was subtracted from all other wells and IC50's were determined by fitting a sigmoidal curve to % inhibition of control versus Log10 compound concentration.

| IC50 [1] | IC50 [2] | IC50 [3] | Structure (SMILES) | EC50 (JJN-3 cells) | EC50 (LP-1 cells) | EC50 (L-363 cells) |
| --- | --- | --- | --- | --- | --- | --- |
| 163 nM | 16 nM | 3.8 nM | CC(C)(O)C#Cc1cc2c(ccn2-c2nc(N)ncc2Cl)cn1 [Compound 7] | 1050 nM | 1900 nM | 977 nM |
| 104 nM | 24 nM | 12 nM | Nc1ncc(Cl)c(-n2ccc3cnc(C#CC4(O)CC4)cc32)n1 [Compound 8] | 1590 nM | 2330 nM | 1560 nM |
| 101 nM | 11 nM | 2.8 nM | Nc1ncc(Cl)c(-n2ccc3cnc(C#CC4(O)CCCC4)cc32)n1 [Compound 9] | 1830 nM | 37200 nM | 15400 nM |
| 89 nM | 18 nM | 5.1 nM | CC(O)(C#Cc1cc2c(ccn2-c2nc(N)ncc2Cl)cn1)c1nccs1 (stereo not drawn) [Compound 10] | 1220 nM | 28000 nM | 12800 nM |
| 330 nM | 232 nM | 115 nM | Cc1cnc(N)nc1-n1ccc2cnc(C#CC(C)(C)O)cc21 [Compound 11] | 2720 nM | 5840 nM | 3770 nM |
| 25 nM | 13 nM | 77 nM | CC(C)(O)C#Cc1cc2c(ccn2-c2nc(N)ncc2F)cn1 [Compound 12] | 132 nM | 282 nM | 133 nM |
| 44 nM | 7.7 nM | 18 nM | Nc1ncc(F)c(-n2ccc3cnc(C#CC4(O)CCCC4)cc32)n1 [Compound 13] | 872 nM | 3270 nM | 4260 nM |
| 1240 nM | 185 nM | 28 nM | CC(C)(O)C#Cc1cc2c(cn1)c(C(N)=O)cn2-c1ccnc(N)n1 [Compound 14] | 10700 nM | > 30000 nM | 12700 nM |
| 1310 nM | 59 nM | 37 nM | CNC(=O)c1cn(-c2ccnc(N)n2)c2cc(C#CC(C)(C)O)ncc12 [Compound 15] | 3330 nM | > 30000 nM | 7180 nM |
| 56 nM | 6.7 nM | 20 nM | CC(CO)c1cn(-c2ccnc(N)n2)c2cc(C#CC(C)(C)O)ncc12 (stereo not drawn) [Compound 16] | 157 nM | 6120 nM | 354 nM |
| 199 nM | 259 nM | 82 nM | CCCCOCc1cn(-c2ccnc(N)n2)c2cc(C#CC(C)(C)O)ncc12 [Compound 17] | 333 nM | 460 nM | 464 nM |
| 56 nM | 20 nM | 22 nM | COCc1cn(-c2ccnc(N)n2)c2cc(C#CC(C)(C)O)ncc12 [Compound 18] | 313 nM | 1330 nM | 247 nM |
| 781 nM | 54 nM | 98 nM | CC(C)(O)C#Cc1cc2c(cn1)c(C#N)cn2-c1ccnc(N)n1 [Compound 19] | 1450 nM | 4660 nM | 1840 nM |
| 55 nM | 26 nM | 13 nM | CC(C)(O)C#Cc1cc2c(cn1)c(CC#N)cn2-c1ccnc(N)n1 [Compound 20] | 190 nM | 1280 nM | 319 nM |
| 9.5 nM | 15 nM | 11 nM | CCc1cn(-c2ccnc(N)n2)c2cc(C#CC(C)(C)O)ncc12 [Compound 21] | 41 nM | 70 nM | 44 nM |
| 16 nM | 16 nM | 6.5 nM | CC(C)c1cn(-c2ccnc(N)n2)c2cc(C#CC(C)(C)O)ncc12 [Compound 22] | 49 nM | 131 nM | 47 nM |
| 87 nM | 35 nM | 33 nM | CN1CCC(c2cn(-c3ccnc(N)n3)c3cc(C#CC(C)(C)O)ncc23)CC1 [Compound 23] | 116 nM | 1920 nM | 92 nM |
| 183 nM | 37 nM | 40 nM | CN1CCC(c2cn(-c3ccnc(N)n3)c3cc(C#CC4(O)CCCC4)ncc23)CC1 [Compound 24] | 779 nM | 4240 nM | 512 nM |
| 75 nM | 95 nM | 103 nM | CN1CCC(c2cn(-c3nc(N)ncc3F)c3cc(C#CC(C)(C)O)ncc23)CC1 [Compound 25] | 130 nM | 1040 nM | 105 nM |
| 41 nM | 11 nM | 3.8 nM | CC(C)(O)C#Cc1cc2c(cn1)c(CCO)cn2-c1ccnc(N)n1 [Compound 26] | 182 nM | 6940 nM | 823 nM |
| 48 nM | 33 nM | 31 nM | COCCc1cn(-c2ccnc(N)n2)c2cc(C#CC(C)(C)O)ncc12 [Compound 27] | 145 nM | 448 nM | 194 nM |
| 28 nM | 5.5 nM | 3.9 nM | CC(C)(O)C#Cc1cc2c(cn1)c(CCCO)cn2-c1ccnc(N)n1 [Compound 28] | 162 nM | 4440 nM | 215 nM |
| 32 nM | 24 nM | 19 nM | CC(C)(O)C#Cc1cc2c(cn1)c(CCCO)cn2-c1nc(N)ncc1F [Compound 29] | 298 nM | 3480 nM | 277 nM |
